System: maize haploids
Assay: Colchicine doubling treatment of BC3 haploids, pollen and kernel phenotypes in the field
Assay type: in vivo
Conditions: for Average Number of Days of Pollen per Plant / Average Number of Kernels per Plant / Percent of Plants with Ears >5 kernels: colchicine-treated haploids
Description: Genotyping was used to identify heterozygotes at SCD-QTL1, and those materials were then crossed by a haploid inducer, embryos isolated from the immature ears, and haploids regenerated for transplant into the field. Immediately after isolation, embryos from each of the 17 BC3 populations were split into 2 treatment groups. […] All lines were planted across three replications of the trial over the course of approximately 6 months, and the data was pooled for analysis.

[1] = BC3 recurrent parent Line 1, SCD Allele
[2] = BC3 recurrent parent Line 1, Unfavorable Allele
[3] = BC3 recurrent parent Line 2, SCD Allele
[4] = BC3 recurrent parent Line 2, Unfavorable Allele
[5] = BC3 recurrent parent Line 3, SCD Allele
[6] = BC3 recurrent parent Line 3, Unfavorable Allele
[7] = BC3 recurrent parent Line 4, SCD Allele
[8] = BC3 recurrent parent Line 4, Unfavorable Allele
[9] = BC3 recurrent parent Line 5, SCD Allele
[10] = BC3 recurrent parent Line 5, Unfavorable Allele
[11] = BC3 recurrent parent Line 6, SCD Allele
[12] = BC3 recurrent parent Line 6, Unfavorable Allele
[13] = BC3 recurrent parent Line 7, SCD Allele
[14] = BC3 recurrent parent Line 7, Unfavorable Allele
[15] = BC3 recurrent parent Line 8, SCD Allele
[16] = BC3 recurrent parent Line 8, Unfavorable Allele
[17] = BC3 recurrent parent Line 9, SCD Allele
[18] = BC3 recurrent parent Line 9, Unfavorable Allele
[19] = BC3 recurrent parent Line 10, SCD Allele
[20] = BC3 recurrent parent Line 10, Unfavorable Allele
[21] = BC3 recurrent parent Line 11, SCD Allele
[22] = BC3 recurrent parent Line 11, Unfavorable Allele
[23] = BC3 recurrent parent Line 12, SCD Allele
[24] = BC3 recurrent parent Line 12, Unfavorable Allele
[25] = BC3 recurrent parent Line 13, SCD Allele
[26] = BC3 recurrent parent Line 13, Unfavorable Allele
[27] = BC3 recurrent parent Line 14, SCD Allele
[28] = BC3 recurrent parent Line 14, Unfavorable Allele
[29] = BC3 recurrent parent Line 15, SCD Allele
[30] = BC3 recurrent parent Line 15, Unfavorable Allele
[31] = BC3 recurrent parent Line 16, SCD Allele
[32] = BC3 recurrent parent Line 16, Unfavorable Allele
[33] = BC3 recurrent parent Line 17, SCD Allele
[34] = BC3 recurrent parent Line 17, Unfavorable Allele

SMILES: COc1cc2c(c(OC)c1OC)-c1ccc(OC)c(=O)cc1[C@@H](NC(C)=O)CC2 [Colchicine, colchicine]
- Average Number of Days of Pollen per Plant [1]: 3.1 days
- Average Number of Kernels per Plant [1]: 23.8 kernels
- Percent of Plants with Ears >5 kernels [1]: 53.9%
- Average Number of Days of Pollen per Plant [2]: 2.4 days
- Average Number of Kernels per Plant [2]: 13.5 kernels
- Percent of Plants with Ears >5 kernels [2]: 26.6%
- Average Number of Days of Pollen per Plant [3]: 1.72 days
- Average Number of Kernels per Plant [3]: 5 kernels
- Percent of Plants with Ears >5 kernels [3]: 12.0%
- Average Number of Days of Pollen per Plant [4]: 2.35 days
- Average Number of Kernels per Plant [4]: 9.62 kernels
- Percent of Plants with Ears >5 kernels [4]: 13.5%
- Average Number of Days of Pollen per Plant [5]: 1.76 days
- Average Number of Kernels per Plant [5]: 7.62 kernels
- Percent of Plants with Ears >5 kernels [5]: 6.9%
- Average Number of Days of Pollen per Plant [6]: 1.45 days
- Average Number of Kernels per Plant [6]: 9.03 kernels
- Percent of Plants with Ears >5 kernels [6]: 9.1%
- Average Number of Days of Pollen per Plant [7]: 0.04 days
- Average Number of Kernels per Plant [7]: 0 kernels
- Percent of Plants with Ears >5 kernels [7]: 0.0%
- Average Number of Days of Pollen per Plant [8]: 0.57 days
- Average Number of Kernels per Plant [8]: 7.1 kernels
- Percent of Plants with Ears >5 kernels [8]: 13.2%
- Average Number of Days of Pollen per Plant [9]: 2.34 days
- Average Number of Kernels per Plant [9]: 2.31 kernels
- Percent of Plants with Ears >5 kernels [9]: 3.1%
- Average Number of Days of Pollen per Plant [10]: 2.19 days
- Average Number of Kernels per Plant [10]: 4.88 kernels
- Percent of Plants with Ears >5 kernels [10]: 7.6%
- Average Number of Days of Pollen per Plant [11]: 1.675 days
- Average Number of Kernels per Plant [11]: 11.23 kernels
- Percent of Plants with Ears >5 kernels [11]: 25.0%
- Average Number of Days of Pollen per Plant [12]: 2.01 days
- Average Number of Kernels per Plant [12]: 19.09 kernels
- Percent of Plants with Ears >5 kernels [12]: 27.2%
- Average Number of Days of Pollen per Plant [13]: 1.58 days
- Average Number of Kernels per Plant [13]: 53.5 kernels
- Percent of Plants with Ears >5 kernels [13]: 37.9%
- Average Number of Days of Pollen per Plant [14]: 1.298 days
- Average Number of Kernels per Plant [14]: 54.18 kernels
- Percent of Plants with Ears >5 kernels [14]: 29.9%
- Average Number of Days of Pollen per Plant [15]: 1.72 days
- Average Number of Kernels per Plant [15]: 37.34 kernels
- Percent of Plants with Ears >5 kernels [15]: 31.1%
- Average Number of Days of Pollen per Plant [16]: 1.466 days
- Average Number of Kernels per Plant [16]: 26.17 kernels
- Average Number of Days of Pollen per Plant [17]: 2.58 days
- Average Number of Kernels per Plant [17]: 27.9 kernels
- Average Number of Days of Pollen per Plant [18]: 2.51 days
- Average Number of Kernels per Plant [18]: 24.067 kernels
- Percent of Plants with Ears >5 kernels [18]: 29.3%
- Average Number of Days of Pollen per Plant [19]: 1.12 days
- Average Number of Kernels per Plant [19]: 23.17 kernels
- Average Number of Days of Pollen per Plant [20]: 1.005 days
- Average Number of Kernels per Plant [20]: 13.75 kernels
- Percent of Plants with Ears >5 kernels [20]: 26.4%
- Average Number of Days of Pollen per Plant [21]: 1.09 days
- Average Number of Kernels per Plant [21]: 4.97 kernels
- Percent of Plants with Ears >5 kernels [21]: 8.7%
- Average Number of Days of Pollen per Plant [22]: 1.2 days
- Average Number of Kernels per Plant [22]: 18.11 kernels
- Percent of Plants with Ears >5 kernels [22]: 17.5%
- Average Number of Days of Pollen per Plant [23]: 1.25 days
- Average Number of Kernels per Plant [23]: 19.56 kernels
- Percent of Plants with Ears >5 kernels [23]: 28.5%
- Average Number of Days of Pollen per Plant [24]: 0.96 days
- Average Number of Kernels per Plant [24]: 22.12 kernels
- Percent of Plants with Ears >5 kernels [24]: 21.3%
- Average Number of Days of Pollen per Plant [25]: 1.45 days
- Average Number of Kernels per Plant [25]: 32.5 kernels
- Percent of Plants with Ears >5 kernels [25]: 25.8%
- Average Number of Days of Pollen per Plant [26]: 1.33 days
- Average Number of Kernels per Plant [26]: 24.5 kernels
- Percent of Plants with Ears >5 kernels [26]: 24.7%
- Average Number of Days of Pollen per Plant [27]: 1.28 days
- Average Number of Kernels per Plant [27]: 31 kernels
- Percent of Plants with Ears >5 kernels [27]: 29.9%
- Average Number of Days of Pollen per Plant [28]: 1.1 days
- Average Number of Kernels per Plant [28]: 40.57 kernels
- Percent of Plants with Ears >5 kernels [28]: 26.2%
- Average Number of Days of Pollen per Plant [29]: 2.66 days
- Average Number of Kernels per Plant [29]: 45.47 kernels
- Percent of Plants with Ears >5 kernels [29]: 64.9%
- Average Number of Days of Pollen per Plant [30]: 2.81 days
- Average Number of Kernels per Plant [30]: 72.9 kernels
- Percent of Plants with Ears >5 kernels [30]: 72.2%
- Average Number of Days of Pollen per Plant [31]: 1.65 days
- Average Number of Kernels per Plant [31]: 31.56 kernels
- Average Number of Days of Pollen per Plant [32]: 1.67 days
- Average Number of Kernels per Plant [32]: 28.03 kernels
- Percent of Plants with Ears >5 kernels [32]: 37.6%
- Average Number of Days of Pollen per Plant [33]: 2.63 days
- Average Number of Kernels per Plant [33]: 52.86 kernels
- Percent of Plants with Ears >5 kernels [33]: 49.1%
- Average Number of Days of Pollen per Plant [34]: 2.51 days
- Average Number of Kernels per Plant [34]: 58.48 kernels
- Percent of Plants with Ears >5 kernels [34]: 50.4%
- pollen and kernel production (colchicine-treated groups compared with SCD-QTL1 alone, 17 BC3 populations pooled): performed overall better in both pollen and kernel production than the SCD-QTL1 alone

Reference: patent US20250234824A1, “MARKERS ASSOCIATED WITH S[…]” (Syngenta Crop Protection AG, priority 2022, published 2025)
